Measurements: US8658363B2, “Cell, method, and assay kit for measuring level of aryl hydrocarbon receptor transcriptional activation” (priority 2009, dated 2014)

Target: T1, Ah receptor (Rattus norvegicus, UniProt P41738)
T1 construct: pcDNA4/V5-His B was linked with the coding region of the rat Ah receptor gene; expressed in transfected cells
T1 sequence (P41738 10-853): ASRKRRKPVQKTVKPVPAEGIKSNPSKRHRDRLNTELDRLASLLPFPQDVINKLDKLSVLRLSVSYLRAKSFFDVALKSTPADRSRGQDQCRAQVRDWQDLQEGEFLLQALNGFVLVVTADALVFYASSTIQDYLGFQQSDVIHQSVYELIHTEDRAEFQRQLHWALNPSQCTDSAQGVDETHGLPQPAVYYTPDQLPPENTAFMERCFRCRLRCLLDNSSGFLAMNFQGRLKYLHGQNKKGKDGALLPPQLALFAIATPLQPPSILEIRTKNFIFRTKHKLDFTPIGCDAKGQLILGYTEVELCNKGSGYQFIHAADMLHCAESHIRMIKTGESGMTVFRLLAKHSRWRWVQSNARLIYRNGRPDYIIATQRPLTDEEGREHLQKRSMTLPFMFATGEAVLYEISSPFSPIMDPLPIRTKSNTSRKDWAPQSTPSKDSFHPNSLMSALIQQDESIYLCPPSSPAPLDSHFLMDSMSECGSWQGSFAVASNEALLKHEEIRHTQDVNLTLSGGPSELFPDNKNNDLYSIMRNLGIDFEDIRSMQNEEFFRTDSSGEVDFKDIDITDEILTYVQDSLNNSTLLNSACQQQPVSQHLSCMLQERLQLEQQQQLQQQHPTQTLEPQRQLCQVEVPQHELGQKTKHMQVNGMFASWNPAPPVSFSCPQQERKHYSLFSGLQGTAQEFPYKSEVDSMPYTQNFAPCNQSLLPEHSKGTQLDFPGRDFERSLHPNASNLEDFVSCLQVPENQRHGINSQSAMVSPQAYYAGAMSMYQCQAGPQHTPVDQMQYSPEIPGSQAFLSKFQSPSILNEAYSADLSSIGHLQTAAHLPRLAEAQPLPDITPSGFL
Experiment: Ah receptor transcriptional activation, luciferase reporter in recombinant N2a-SY1 cells
Type: cell-based
Details: for N2a-SY1 (magnification of activation) [signal-to-noise ratio] / N2a-SY1 (LUC) compensated value: luciferase luminescence RLU divided by absorbance of β-galactosidase: 24 hours, N2a-SY1 cells
Experimental: The recombinant cells (N2a-SY1) produced in Example 4 were seeded on a 24-well plate with about 80,000 cells per well and then cultured in a […] medium of 10% serum for several hours to overnight.
Next, the medium of the recombinant cell cultured in the above manner was aspirated to remove it, and DF 1:1 mediums of 10% serum which contained a 2,3,7,8-TCDD in concentrations of 0, 0.1, 1, 10, 100 and 1000 pg/mL, respectively were each dispensed in each well with 1 mL per well to culture cells. The culturing of cells was continued, the medium was removed after 24 hours and the cells were washed once with PBS 1 mL per well. Then, 200 μL per well of a PicaGene Cell Culture Lysis Reagent Luβ (manufactured by Toyo B-Net Co., Ltd.) diluted five times was added to each well, which was then allowed to stand at room temperature for 10 minutes or more to dissolve, thereby obtaining a cell extract. The obtained cell extract was frozen-stored in a freezing chamber, this frozen-stored plate was taken out of the freezing chamber, and the cell extract was fused at room temperature. 10 μL of the fused cell extract was transferred to a black 96-well plate. Then, 100 μL per well of a PicaGene (trademark) LT210 luminescence substrate solution was dispensed in each well of the plate and mixed and then, the plate was set to a Mithras LB940 Microplate Reader (manufactured by Berthold Japan K.K.) to measure a luminescence amount continuously. Separately, 10 μL of the above cell extract was transferred to a transparent 96-well plate. 150 μL of a β-galactosidase substrate solution (ONPG substrate solution) was added to each well of the plate, which was incubated at room temperature for 5 minutes, and then, 50 μL of a reaction stop solution (aqueous […] sodium carbonate solution) was added to each well. Then, the plate was set to a micro-plate reader to measure absorbance of each well at 405 nm. Using a standard curve, the absorbance was converted into the amount of β-galactosidase (ng) in the protein extract. The results are shown by a bar graph in FIG. 4, and also in Table 1 showing each value (in the table, each value is a compensated value calculated by dividing the luminescence relative light units (RLU) of luciferase by the absorbance of β-galactosidase and bB/A means the magnification of activation [signal-to-noise ratio]).
The stable recombinant cells (N2a-SY1) produced in Example 4 were seeded on a 24-well plate with about 80,000 cells per well and cultured in a DF 1:1 medium of 10% serum for several hours to overnight.
Next, the medium of the recombinant cell cultured in the above manner was aspirated to remove it, and DF 1:1 mediums of 10% serum which contained PCB126 at concentrations of 0, 0.2, 2, 20, 200, 2000, and 20000 pg/mL respectively were dispensed in each well with 1 mL per well to culture cells. The culturing of cells was continued, the medium was removed after 24 hours and the cells were washed once with PBS 1 mL per well. Then, 200 μL per well of a PicaGene Cell Culture Lysis Reagent Luβ (manufactured by Toyo B-Net Co., Ltd.) diluted five times was added to each well, which was then allowed to stand at room temperature for 10 minutes or more to dissolve, thereby obtaining a cell extract. The obtained cell extract was frozen-stored in a freezing chamber, this frozen-stored plate was taken out of the freezing chamber, and the cell extract was fused at room temperature. 10 μL of the fused cell extract was transferred to a black 96-well plate. Then, 100 μL per well of a PicaGene (trademark) LT210 luminescence substrate solution was dispensed in each well of the plate and mixed and then, the plate was set to a Mithras LB940 Microplate Reader (manufactured by Berthold Japan K.K.) to measure a luminescence amount continuously. Separately, 10 μL of the above cell extract was transferred to a transparent 96-well plate. […]

## Clc1ccc(-c2cc(Cl)c(Cl)c(Cl)c2)cc1Cl [PCB126]
PCB126 0.2 pg/ml vs 0 pg/ml
  N2a-SY1 (magnification of activation) [signal-to-noise ratio]: 0.91
PCB126 0.2 pg/ml
  N2a-SY1 (LUC) compensated value: luciferase luminescence RLU divided by absorbance of β-galactosidase: 1882.6
PCB126 2 pg/ml vs 0 pg/ml
  N2a-SY1 (magnification of activation) [signal-to-noise ratio]: 1.15
PCB126 2 pg/ml
  N2a-SY1 (LUC) compensated value: luciferase luminescence RLU divided by absorbance of β-galactosidase: 2388
PCB126 20 pg/ml vs 0 pg/ml
  N2a-SY1 (magnification of activation) [signal-to-noise ratio]: 1.92
PCB126 20 pg/ml
  N2a-SY1 (LUC) compensated value: luciferase luminescence RLU divided by absorbance of β-galactosidase: 3991
PCB126 200 pg/ml vs 0 pg/ml
  N2a-SY1 (magnification of activation) [signal-to-noise ratio]: 2.74
PCB126 200 pg/ml
  N2a-SY1 (LUC) compensated value: luciferase luminescence RLU divided by absorbance of β-galactosidase: 5685.8
PCB126 2000 pg/ml vs 0 pg/ml
  N2a-SY1 (magnification of activation) [signal-to-noise ratio]: 3.08
PCB126 2000 pg/ml
  N2a-SY1 (LUC) compensated value: luciferase luminescence RLU divided by absorbance of β-galactosidase: 6401.6
PCB126 20000 pg/ml vs 0 pg/ml
  N2a-SY1 (magnification of activation) [signal-to-noise ratio]: 3.02
PCB126 20000 pg/ml
  N2a-SY1 (LUC) compensated value: luciferase luminescence RLU divided by absorbance of β-galactosidase: 6264.8
PCB126 200000 pg/ml vs 0 pg/ml
  N2a-SY1 (magnification of activation) [signal-to-noise ratio]: 3.02
PCB126 200000 pg/ml
  N2a-SY1 (LUC) compensated value: luciferase luminescence RLU divided by absorbance of β-galactosidase: 6268.9

## Clc1cc2c(cc1Cl)Oc1cc(Cl)c(Cl)cc1O2 [2,3,7,8-TCDD]
2,3,7,8-TCDD 0.01 pg/ml vs 0 pg/ml
  N2a-SY1 (magnification of activation) [signal-to-noise ratio]: 1.
2,3,7,8-TCDD 0.01 pg/ml
  N2a-SY1 (LUC) compensated value: luciferase luminescence RLU divided by absorbance of β-galactosidase: 1187.8
2,3,7,8-TCDD 0.1 pg/ml vs 0 pg/ml
  N2a-SY1 (magnification of activation) [signal-to-noise ratio]: 1.24
2,3,7,8-TCDD 0.1 pg/ml
  N2a-SY1 (LUC) compensated value: luciferase luminescence RLU divided by absorbance of β-galactosidase: 1451.5
2,3,7,8-TCDD 1 pg/ml vs 0 pg/ml
  N2a-SY1 (magnification of activation) [signal-to-noise ratio]: 1.34
2,3,7,8-TCDD 1 pg/ml
  N2a-SY1 (LUC) compensated value: luciferase luminescence RLU divided by absorbance of β-galactosidase: 1577.6
2,3,7,8-TCDD 10 pg/ml vs 0 pg/ml
  N2a-SY1 (magnification of activation) [signal-to-noise ratio]: 3.43
2,3,7,8-TCDD 10 pg/ml
  N2a-SY1 (LUC) compensated value: luciferase luminescence RLU divided by absorbance of β-galactosidase: 4029.7
2,3,7,8-TCDD 100 pg/ml vs 0 pg/ml
  N2a-SY1 (magnification of activation) [signal-to-noise ratio]: 4.88
2,3,7,8-TCDD 100 pg/ml
  N2a-SY1 (LUC) compensated value: luciferase luminescence RLU divided by absorbance of β-galactosidase: 5718.5
2,3,7,8-TCDD 1000 pg/ml vs 0 pg/ml
  N2a-SY1 (magnification of activation) [signal-to-noise ratio]: 5.22
2,3,7,8-TCDD 1000 pg/ml
  N2a-SY1 (LUC) compensated value: luciferase luminescence RLU divided by absorbance of β-galactosidase: 6132.5
Recombinant cell of the embodiment
  concentration in a sample that may be detected (Ah receptor transcriptional activation): 0.1 pg/mL
